Patent publication US9265736B2, “Treatment of cardiovascular disease and thrombosis” (THE CLEVELAND CLINIC FOUNDATION, priority 2011, dated 2016)
Entries after “also recorded” stand apart in the source; their conditions may differ.

What was measured:
[1] = system: peritoneal macrophages; experiment: Macrophage cholesterol accumulation in mice on supplemented chow (Example 1); assay type: in vivo, C57BL/6J.Apoe−/− mice; settings: normal chow supplemented with choline (1.0%), TMAO (0.12%) or DMB (1.0%) vs normal chow
Description: Male C57BL/6J.Apoe−/− mice (15 week old) were placed on normal chow (control) alone or supplemented in the presence of either choline (1.0%), TMAO (0.12%), or DMB (1.0%). Peritoneal macrophages were recovered from the indicated number of mice at 20 weeks of age and cellular cholesterol content was quantified by stable isotope dilution GC/MS, and normalized to DNA content. (b) Schematic illustration of overall pathway.
(§1) Experiments were conducted during development of embodiments of the present invention to examine the structural specificity of phaophatidylcholine metabolites in promoting a pro-atherogenic macrophage phenotype as monitored by endogenous foam cell formation. C57BL/6J.Apoe−/− mice at time of weaning were placed on either normal chow diet (control) or normal chow supplemented with either choline, TMAO or the choline analog DMB, where the quaternary amine nitrogen of choline is replaced with a carbon (SEE FIG. 2, right). Thus, DMB is structurally identical to choline except there is no C—N bond for potential cleavage and TMA formation by gut flora.

[2] = Plasma TMAO in mice on supplemented chow (Example 1); assay type: in vivo, C57BL/6J.Apoe−/− mice; settings: normal chow supplemented with choline, TMAO or DMB vs normal chow
Description: as §1

[3] = system: C57BL/6J.Apoe−/− male mice; experiment: Aortic root lesion / atherosclerotic plaque, oil red O staining (Example 2); assay type: in vivo
Text: C57BL/6J.Apoe−/− male mice at the time of weaning (4 weeks) were placed on chow diet supplemented with 1.3% choline, 1.3% DMB, both, or neither. Aortic root section was stained with oil red 0/hematoxin. The red oil staining area inside the aorta indicates lesion plaque (SEE FIGS. 3 and 4).

[4] = Plasma lipoprotein profile (Example 3); assay type: in vivo, mice; settings: 1.3% DMB added to mouse diet
Description: Experiments were conducted during development of embodiments of the present invention to compare plasma levels of (1) cholesterol, (2) triglyceride, low density lipoprotein-cholesterol, and HDL cholesterol in mice fed chow, or chow supplemented with 1.3% choline, 1.3% DMB, or both (SEE FIG. 5).

[5] = system: Peritoneal macrophages; experiment: Cholesterol accumulation and foam cell formation, oil red O staining of peritoneal macrophages (Example 4); assay type: in vivo, C57BL/6J.Apoe−/− male mice; settings: chow with 1.3% choline and 1.3% DMB
Description: Experiments were conducted during development of embodiments of the present invention to examine the effect of addition of DMB on cholesterol accumulation and foam cell formation. C57BL/6J.Apoe−/− male mice at the time of weaning (4 weeks) were placed on chow diet supplemented with 1.3% choline, 1.3% DMB, both, or neither. Peritoneal macrophages were collected, fixed in 4% paraformaldehyde and stained with oil red 0/hematoxin. Addition of DMB reversed the high choline diet induced cholesterol accumulation and foam cell formation (SEE FIG. 6).

[6] = system: peritoneal mouse macrophages; experiment: Total cholesterol in peritoneal macrophages by stable isotope dilution LC/MS/MS (Example 5); assay type: in vivo, C57BL/6J.Apoe−/− male mice; settings: chow with 1.3% choline and 1.3% DMB
Description: Experiments were conducted during development of embodiments of the present invention to determine the effect of DMB on total cholesterol level in peritoneal mouse macrophages (SEE FIG. 7). C57BL/6J.Apoe−/− male mice at the time of weaning (4 weeks) were placed on chow diet supplemented with 1.3% choline, 1.3% DMB, both, or neither. The total cholesterol of cells was quantified by stable isotope dilution LC/MS/MS. Cells number was quantified by protein content in cell lysates.

[7] = system: intestinal microflora; experiment: Intestinal microflora-catalyzed generation of trimethylamine from choline, cecum homogenate (Example 6); assay type: biochemical; settings: D9-choline substrate, mouse cecum homogenate
Description: Experiments were conducted during development of embodiments of the present invention to examine the effect of DMB on intestinal microflora-catalyzed generation of trimethylamine from choline. Mouse celum was homogenized as a source of intestinal microflora. D9-choline was used as a substrate and the generation of […] was quantificed by stable isotope dilution LC/MS/MS.

[8] = Plasma TMA and TMAO by stable isotope dilution LC/MS/MS in mice on diets (Example 7); assay type: in vivo
Description: Six week old female mice were placed on the indicated diets +/− shown in FIG. 9, including Chow, CHOW+ antibiotics (ABS; which was 0.5 g/L vancomycin, 1 g/L neomycin sulfate, 1 g/L metronidazole, and 1 g/L ampicillin), TMAO, CH (chow supplemented with 1.0% wt/wt choline), CH and ABS, and CH+DMB. Mice were placed on these diets at 6 weeks of age and maintained on the diets for 3 weeks. Plasma was then recovered and both TMA and TMAO were determined by stable isotope dilution LC/MS/MS. Note that a diet rich in choline (similar to a Western diet) leads to increases in plasma TMA and TMAO levels.
In this example, mice were placed on either normal chow diet at time of weaning, or a high choline diet. After several weeks, whole blood was removed, and platelets isolated. The ability of a submaximal agonist of platelets, ADP, to trigger platelet aggregation was then determined. In parallel, plasma levels of TMAO were determined by established stable isotope dilution LC/MS/MS analyses. […] This is a clear signal of a pro-thrombotic phenotype in the mice on a high choline diet. In a similar study, the mice on the high choline were also placed on a cocktail of broad spectrum antibiotics (described above and in Wang et al., Nature 2011, April, 472(7341):57-63, incorporated by reference it its entirety for all purposes) to suppress intestinal microflora, and reduce plasma TMAO levels. […] Such drugs (e.g., DMB or antibiotics) are attractive since they should not induce excess bleeding (e.g., like commercial anti-thrombotic drugs like clopidogrel or Warfarin). That is, TMAO only accentuates platelet function, and reducing TMAO levels (like with DMB, antibiotic, or some other drug or approach, be it functional food, probiotic, or prebiotic) would decrease in vivo thrombosis, but not reduce below “normal” function, and thus not increase bleeding risk.

[9] = system: platelets; experiment: Ex vivo platelet aggregation triggered by ADP (Example 7); assay type: in vivo, mice
Description: In this example, mice were placed on either normal chow diet at time of weaning, or a high choline diet. After several weeks, whole blood was removed, and platelets isolated. The ability of a submaximal agonist of platelets, ADP, to trigger platelet aggregation was then determined. In parallel, plasma levels of TMAO were determined by established stable isotope dilution LC/MS/MS analyses. […] This is a clear signal of a pro-thrombotic phenotype in the mice on a high choline diet. In a similar study, the mice on the high choline were also placed on a cocktail of broad spectrum antibiotics (described above and in Wang et al., Nature 2011, April, 472(7341):57-63, incorporated by reference it its entirety for all purposes) to suppress intestinal microflora, and reduce plasma TMAO levels. […] Such drugs (e.g., DMB or antibiotics) are attractive since they should not induce excess bleeding (e.g., like commercial anti-thrombotic drugs like clopidogrel or Warfarin). That is, TMAO only accentuates platelet function, and reducing TMAO levels (like with DMB, antibiotic, or some other drug or approach, be it functional food, probiotic, or prebiotic) would decrease in vivo thrombosis, but not reduce below “normal” function, and thus not increase bleeding risk. […]

[10] = system: wild-type mice; experiment: Carotid artery in vivo thrombosis rate by vital microscopy, wild-type mice
Description: This example repeats the study immediately above, excepts uses wild-type mice. The results are shown FIG. 14.
Carotid artery in vivo thrombosis rates were determined using vital microscopy on the indicated groups of mice shown in FIG. 15. Mice were on the indicated diets +/− ABS or DMB for 3 weeks.

[11] = system: ApoE−/− mice; experiment: Carotid artery in vivo thrombosis rate by vital microscopy, ApoE−/− mice; settings: diet high in choline or supplemented with TMAO, 3 weeks
Description: In this example, carotid artery in vivo thrombosis rates were determined using vital microscopy on the indicated groups of mice in FIG. 13. Mice were on the indicated diets +/− ABS for 3 weeks.
These studies extend to in vivo studies what was seen before with ex vivo platelet aggregation studies from mice on the various indicated diets. […] A shorter time indicates faster platelet aggregation (enhanced in vivo thrombosis).

[12] = female mice, diets for 3 weeks, ABS or DMB added (high choline diet)

SMILES | macrophage cholesterol content [1] | plasma levels of TMAO [2] | reduction of aortic plaque formation ([3]; 1.3% DMB added to normal chow diet, from weaning (4 weeks)) | increases in atherosclerotic plaque induced by the high choline diet ([3]; chow supplemented with 1.3% choline and 1.3% DMB) | plasma HDL cholesterol [4] | plasma low density lipoprotein-cholesterol [4] | plasma total cholesterol [4] | plasma triglyceride [4] | high choline diet induced cholesterol accumulation and foam cell formation [5] | high choline diet induced increase in macrophage cholesterol content [6] | gut flora-mediated catabolism of choline to TMA [7] | diet induced TMAO levels ([8]; WT thrombosis study, high choline diet plus ABS or DMB, 3 weeks) | plasma TMA formation [8, 12] | plasma TMAO formation [8, 12] | plasma TMAO formation ([8]; platelet study, high choline diet plus antibiotics or DMB) | choline diet induced platelet hyperresponsiveness (aggregation) ([9]; high choline diet plus antibiotics or DMB) | change in in vivo thrombosis rates seen on a high choline diet ([10]; WT mice, high choline diet plus ABS or DMB, 3 weeks) | platelet aggregation responses to ADP ([9]; diet supplemented with choline or TMAO vs normal chow) | in vivo thrombosis rates (time to cessation of blood flow in the carotid artery) [11] | in vivo thrombosis rates ([10]; wild-type mice, absence of dyslipidemia)
CC(C)(C)CCO [DMB, 3,3-dimethyl-1-butanol] | no increased accumulation | no TMAO increase | ~90% | blocks the diet-induced enhanced atherosclerosis | increase | significant reductions | significant reductions | significant reductions | reversed | blocked | markedly inhibited | block TMAO levels | inhibits | inhibits | inhibits TMAO formation | markedly reduces platelet hyperresponsiveness; also recorded: blocks platelet hyper-responsiveness | block the reduction in in vivo thrombosis rates seen on a high choline diet | – | – | –
C[N+](C)(C)[O-] [TMAO, trimethylamine N-oxide, reference compound] | increased | elevated | – | – | – | – | – | – | – | – | – | – | – | – | – | – | – | promotes enhanced platelet aggregation | promotes accelerated in vivo thrombosis rates | enhances in vivo thrombosis rates
